Test results published in patent US11008346B2, “Beta-lactamase inhibitors” (priority 2014, dated 2021).

Columns and labels:
KPC-2 β-lactamase = molecular target: T1, KPC-2 β-lactamase (Klebsiella pneumoniae, UniProt Q9F663); test: β-lactamase enzyme inhibition, KPC-2; format: biochemical; details: imipenem substrate, 300 nm; 15 min at 37° C. preincubation; read-out: IC50 KPC-2 (Class A)
T1 construct: made in house; host or cells: E. coli BL21(DE3)
Procedure, shortened: (§1)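 IC50 was the inhibitor concentration halving the initial hydrolysis rate versus no-inhibitor wells, following a 15 min 37° C. enzyme–inhibitor preincubation. Substrates: imipenem read at 300 nm for KPC-2, cefotaxime at 260 nm for SHV-5, and nitrocefin (100 μM final) at 486 nm for OXA-1 and p99 AmpC. Enzymes were recombinant untagged proteins from E. coli BL21(DE3).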

[1] = tested on: E. cloacae 144200 expressing Class C P99 AmpC; test: broth microdilution MIC, E. cloacae P99; format: cell-based; details: Fixed CAZ (ceftazidime) 4 μg/mL
Procedure, shortened: (§2)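 Compounds were titrated in 2-fold steps from 32 to 0.25 μg/mL in cation-adjusted Mueller Hinton broth with a β-lactam held at 4 μg/mL. Plates were inoculated by CLSI broth microdilution with strains pre-grown 3–5 h. After 16–20 h at 37 °C, MIC was read visually.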

[2] = tested on: E. coli ESBL4 expressing CTX-M-15; test: broth microdilution MIC, E. coli CTX-M-15; format: cell-based; details: Fixed CAZ (ceftazidime) 4 μg/mL
Procedure, shortened: as §2

p99 AmpC β-lactamase = molecular target: T2, p99 AmpC β-lactamase (Enterobacter cloacae, UniProt P05364); test: β-lactamase enzyme inhibition, p99 AmpC; format: biochemical
T2 construct: made in house; host or cells: E. coli BL21(DE3)
Procedure, shortened: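 Inhibitor and enzyme were incubated 15 min at 37°C first. The enzyme was recombinant p99 AmpC, untagged, from E. coli BL21(DE3), purified by ion-exchange and size-exclusion chromatography.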

SHV-5 β-lactamase = molecular target: T3, SHV-5 β-lactamase (Klebsiella pneumoniae, UniProt P0A3M1); test: β-lactamase enzyme inhibition, SHV-5; format: biochemical
T3 construct: made in house; host or cells: E. coli BL21(DE3)
Procedure, shortened: as §1

[3] = molecular target: T4, VIM-2 metallo β-lactamase (Pseudomonas aeruginosa, UniProt Q9K2N0); test: β-lactamase enzyme inhibition, VIM-2; format: biochemical; details: Nitrocefin 100 μM, 486 nm; 15 min at 37° C. preincubation; read-out: IC50 VIM-2 (Class B)
T4 construct: made in house; host or cells: E. coli BL21(DE3)
Procedure, shortened: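 Inhibitor and enzyme sat together 15 min at 37° C before 100 μM nitrocefin (final) was added and 486 nm absorbance read for 10 min. IC50 is the concentration halving initial hydrolysis rate relative to uninhibited wells. Protein came from Q sepharose anion exchange at pH 7.5, repeated to >90% purity.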

OXA-1 β-lactamase = molecular target: T5, OXA-1 β-lactamase (Escherichia coli, UniProt P13661); test: β-lactamase enzyme inhibition, OXA-1; format: biochemical; details: Nitrocefin 100 μM, 486 nm; 15 min at 37° C. preincubation; read-out: IC50 OXA-1 (Class D)
T5 construct: made in house; host or cells: E. coli BL21(DE3)
Experimental: For SHV-5, Kpc-2, p99AmpC and OXA-1 β-lactamases, E. coli BL21(DE3) bacterial cells carrying expression plasmids (expressed as native untagged proteins) for the individual β-lactamases were grown in 1 L of Superbroth (Teknova Inc. Hollister, Calif.) supplemented with 100 μg/ml kanamycin selection and 1×5052 (0.5% glycerol, 0.05% glucose and 0.2% α-lactose) at 35° C. for 18-20 hours. Cells were harvested by centrifugation (4,000×g, 4° C., 20 min), resuspended in 50 ml of 10 mM HEPES pH 7.5 ( 1/20 of the initial volume). The cells were lysed by sonication (5 pulses of 45 seconds) at 45 W on ice. The lysates were clarified by centrifugation at 10,000×g for 40 minutes at 4° C. Samples were diluted 5-fold in 50 mM sodium acetate pH 5.0, stored overnight at 4° C., after which they were centrifuged at 10,000×g for 30 minutes to clarify, and filtered through 0.45 μm filters. The samples were loaded onto a 5 ml Capto S sepharose cation exchange column (GE Healthcare) pre-equilibrated with 50 mM sodium acetate pH 5.0. The column was washed with 5 column volumes of 50 mM sodium acetate pH 5.0 to wash out unbound protein and a linear gradient of NaCl (0 to 500 mM) was used to elute the protein (over 16 CV) from the column. Fractions were assayed for […] activity using Centa (Calbiochem, Gibbstown, N.J.) or Nitrocefin (EMD Millipore chemicals, Darmstadt, Germany) as a reporter β-lactamase substrate for activity in the isolated fractions. Active fractions were pooled, concentrated and further purified by gel filtration chromatography on a Superdex 75 prep grade gel filtration column (GE Healthcare, Piscataway, N.J.) pre-equilibrated in 50 mM Hepes pH 7.5, 150 mM NaCl. Active fractions were pooled, concentrated, and quantitated by BCA protein determination (Thermo Scientific, Rockford, Ill.), dialyzed into PBS and frozen at −80° C. in 20% glycerol until use.
An equal volume of diluted enzyme stock was added, and the plates were incubated at 37° C. for 15 min. Nitrocefin was used as substrate for p99 AmpC, VIM-2 and OXA-1 and dispensed into each well at a final concentration of 100 μM. Absorbance at 486 nm was immediately monitored for 10 min using a Biotek Powerwave XS2 microplate spectrophotometer using the GEN5 software package (Biotek Instruments, Winooski Vt.). In an analogous fashion, imipenem was used as substrate for KPC-2 and Cefotaxime was used for SHV-5, while changes in absorbance upon hydrolysis of the β-lactam ring were monitored at 300 nm and 260 nm respectively in UV-transparent 96-well microtiter assay plates. Maximum rates of hydrolysis were compared to those in control wells (without inhibitors), and percentages of enzyme inhibition were calculated for each concentration of inhibitor. The concentration of inhibitor needed to reduce the initial rate of hydrolysis of substrate by 50% (IC50) was calculated as the residual activity of β-lactamase at 486 nm using GraFit version 7 kinetics software package (Erithacus Software, Surrey, UK).
Using the methodology described above, examples of the current invention were evaluated for their ability to inhibit β-lactamase enzymes from all four Ambler classifications (A through D). […] NT=Not tested.

[4] = tested on: K. pneumoniae A-1797 expressing KPC-2 and VIM-4; test: broth microdilution MIC, K. pneumoniae KPC-2 and VIM-4; format: cell-based; details: Fixed Mero (meropenem) 4 μg/mL
Procedure, shortened: as §2

[5] = tested on: K. pneumoniae 156319 expressing KPC-3; test: broth microdilution MIC, K. pneumoniae KPC-3; format: cell-based; details: Fixed Mero (meropenem) 4 μg/mL
Procedure, shortened: as §2

T2 sequence (P05364 21-381): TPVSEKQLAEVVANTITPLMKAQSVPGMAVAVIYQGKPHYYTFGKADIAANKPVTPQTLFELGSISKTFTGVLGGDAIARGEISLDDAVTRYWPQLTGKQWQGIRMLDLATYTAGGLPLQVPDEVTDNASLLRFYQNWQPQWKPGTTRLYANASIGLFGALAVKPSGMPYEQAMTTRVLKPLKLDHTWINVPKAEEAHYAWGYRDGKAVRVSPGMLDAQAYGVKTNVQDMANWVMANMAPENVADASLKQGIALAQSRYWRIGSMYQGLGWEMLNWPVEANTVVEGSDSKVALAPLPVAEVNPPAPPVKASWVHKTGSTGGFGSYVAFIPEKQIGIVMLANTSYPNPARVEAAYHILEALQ
T5 sequence (P13661 26-276): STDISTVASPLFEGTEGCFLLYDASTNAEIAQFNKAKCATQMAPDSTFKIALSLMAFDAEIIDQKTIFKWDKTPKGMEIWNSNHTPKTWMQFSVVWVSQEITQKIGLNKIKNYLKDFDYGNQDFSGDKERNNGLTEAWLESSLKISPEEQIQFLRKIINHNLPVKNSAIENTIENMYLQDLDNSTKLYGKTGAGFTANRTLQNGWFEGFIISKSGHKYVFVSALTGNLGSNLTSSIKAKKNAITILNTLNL
T3 sequence (P0A3M1 22-286): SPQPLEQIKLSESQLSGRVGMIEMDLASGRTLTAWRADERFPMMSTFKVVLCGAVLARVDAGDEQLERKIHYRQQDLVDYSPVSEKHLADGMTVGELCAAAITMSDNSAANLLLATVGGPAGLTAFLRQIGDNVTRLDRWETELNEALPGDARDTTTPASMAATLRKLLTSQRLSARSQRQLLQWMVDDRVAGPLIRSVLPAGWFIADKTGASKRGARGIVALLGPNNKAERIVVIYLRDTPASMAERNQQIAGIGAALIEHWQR
T1 sequence (Q9F663 25-293, looked up): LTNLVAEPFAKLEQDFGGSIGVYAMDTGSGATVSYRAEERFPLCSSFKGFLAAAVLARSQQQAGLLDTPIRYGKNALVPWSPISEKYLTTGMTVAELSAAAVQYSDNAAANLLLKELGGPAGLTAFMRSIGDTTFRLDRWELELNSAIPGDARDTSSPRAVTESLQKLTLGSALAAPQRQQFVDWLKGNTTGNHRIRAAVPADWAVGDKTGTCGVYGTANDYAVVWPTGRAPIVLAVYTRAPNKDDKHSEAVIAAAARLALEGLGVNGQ

CC(C)(C#N)CC(=O)N[C@H]1Cc2cccc(C(=O)O)c2OB1O [Example 43, (R)-3-(3-Cyano-3,3-dimethyl-propionylamino)-2-hydroxy-3,4-dihydro-2H-benzo[e][1,2]oxaborinine-8-carboxylic acid]
IC50 (KPC-2 β-lactamase): < 100 nM
MIC of exemplary compounds in presence of fixed β-lactams, E. cl. 144200 p99 AmpC [1]: C (C represents the MIC in the presence of ≤4 g/mL of a β-lactamase inhibitor)
MIC of exemplary compounds in presence of fixed β-lactams, E. coli ESBL4 CTX-M-15 [2]: C (C represents the MIC in the presence of ≤4 g/mL of a β-lactamase inhibitor)
IC50 (p99 AmpC β-lactamase): 100 to 1000 nM
IC50 (SHV-5 β-lactamase): 100 to 1000 nM
IC50 [3]: 100 to 1000 nM
IC50 (OXA-1 β-lactamase): < 100 nM
MIC of exemplary compounds in presence of fixed β-lactams, K.P. A-1797 KPC-2 VIM-4 [4]: B (B represents the MIC in the presence of between 8 and 32 g/mL of a β-lactamase inhibitor)
MIC of exemplary compounds in presence of fixed β-lactams, K.P. 156319 KPC-3 [5]: C (C represents the MIC in the presence of ≤4 g/mL of a β-lactamase inhibitor)

N#CCCC(=O)N[C@H]1Cc2ccc(F)c(C(=O)O)c2OB1O [Example 46, (R)-3-(3-Cyano-propionylamino)-7-fluoro-2-hydroxy-3,4-dihydro-2H-benzo[e][1,2]oxaborinine-8-carboxylicacid]
IC50 (KPC-2 β-lactamase): < 100 nM
MIC of exemplary compounds in presence of fixed β-lactams, E. cl. 144200 p99 AmpC [1]: C (C represents the MIC in the presence of ≤4 g/mL of a β-lactamase inhibitor)
MIC of exemplary compounds in presence of fixed β-lactams, E. coli ESBL4 CTX-M-15 [2]: C (C represents the MIC in the presence of ≤4 g/mL of a β-lactamase inhibitor)
IC50 (p99 AmpC β-lactamase): < 100 nM
IC50 (SHV-5 β-lactamase): < 100 nM
IC50 [3]: 100 to 1000 nM
IC50 (OXA-1 β-lactamase): < 100 nM
MIC of exemplary compounds in presence of fixed β-lactams, K.P. A-1797 KPC-2 VIM-4 [4]: B (B represents the MIC in the presence of between 8 and 32 g/mL of a β-lactamase inhibitor)
MIC of exemplary compounds in presence of fixed β-lactams, K.P. 156319 KPC-3 [5]: C (C represents the MIC in the presence of ≤4 g/mL of a β-lactamase inhibitor)

CC(=O)CCC(=O)N[C@H]1Cc2ccc(F)c(C(=O)O)c2OB1O [Example 47, (R)-7-Fluoro-2-hydroxy-3-(4-oxo-pentanoylamino)-3,4-dihydro-2H-benzo[e][1,2]oxaborinine-8-carboxylic acid]
IC50 (KPC-2 β-lactamase): < 100 nM
MIC of exemplary compounds in presence of fixed β-lactams, E. cl. 144200 p99 AmpC [1]: C (C represents the MIC in the presence of ≤4 g/mL of a β-lactamase inhibitor)
MIC of exemplary compounds in presence of fixed β-lactams, E. coli ESBL4 CTX-M-15 [2]: C (C represents the MIC in the presence of ≤4 g/mL of a β-lactamase inhibitor)
IC50 (p99 AmpC β-lactamase): < 100 nM
IC50 (SHV-5 β-lactamase): < 100 nM
IC50 [3]: < 100 nM
IC50 (OXA-1 β-lactamase): < 100 nM
MIC of exemplary compounds in presence of fixed β-lactams, K.P. A-1797 KPC-2 VIM-4 [4]: C (C represents the MIC in the presence of ≤4 g/mL of a β-lactamase inhibitor)
MIC of exemplary compounds in presence of fixed β-lactams, K.P. 156319 KPC-3 [5]: C (C represents the MIC in the presence of ≤4 g/mL of a β-lactamase inhibitor)

CS(=O)(=O)NCCC(=O)N[C@H]1Cc2ccc(F)c(C(=O)O)c2OB1O [Example 48, (R)-7-Fluoro-2-hydroxy-3-(3-methanesulfonylamino-propionylamino)-3,4-dihydro-2H-benzo[e][1,2]oxaborinine-8-carboxylic acid]
IC50 (KPC-2 β-lactamase): < 100 nM
MIC of exemplary compounds in presence of fixed β-lactams, E. cl. 144200 p99 AmpC [1]: C (C represents the MIC in the presence of ≤4 g/mL of a β-lactamase inhibitor)
MIC of exemplary compounds in presence of fixed β-lactams, E. coli ESBL4 CTX-M-15 [2]: C (C represents the MIC in the presence of ≤4 g/mL of a β-lactamase inhibitor)
IC50 (p99 AmpC β-lactamase): < 100 nM
IC50 (SHV-5 β-lactamase): < 100 nM
IC50 [3]: 100 to 1000 nM
IC50 (OXA-1 β-lactamase): < 100 nM
MIC of exemplary compounds in presence of fixed β-lactams, K.P. A-1797 KPC-2 VIM-4 [4]: B (B represents the MIC in the presence of between 8 and 32 g/mL of a β-lactamase inhibitor)
MIC of exemplary compounds in presence of fixed β-lactams, K.P. 156319 KPC-3 [5]: C (C represents the MIC in the presence of ≤4 g/mL of a β-lactamase inhibitor)

N#CCCC(=O)N[C@H]1Cc2cc(F)c(F)c(C(=O)O)c2OB1O [Example 49, (R)-3-(3-Cyano-propionylamino)-6,7-difluoro-2-hydroxy-3,4-dihydro-2H-benzo[e][1,2]oxaborinine-8-carboxylic acid]
IC50 (KPC-2 β-lactamase): < 100 nM
MIC of exemplary compounds in presence of fixed β-lactams, E. cl. 144200 p99 AmpC [1]: C (C represents the MIC in the presence of ≤4 g/mL of a β-lactamase inhibitor)
MIC of exemplary compounds in presence of fixed β-lactams, E. coli ESBL4 CTX-M-15 [2]: C (C represents the MIC in the presence of ≤4 g/mL of a β-lactamase inhibitor)
IC50 (p99 AmpC β-lactamase): 100 to 1000 nM
IC50 (SHV-5 β-lactamase): < 100 nM
IC50 [3]: 1000 to 10000 nM
IC50 (OXA-1 β-lactamase): < 100 nM
MIC of exemplary compounds in presence of fixed β-lactams, K.P. A-1797 KPC-2 VIM-4 [4]: B (B represents the MIC in the presence of between 8 and 32 g/mL of a β-lactamase inhibitor)
MIC of exemplary compounds in presence of fixed β-lactams, K.P. 156319 KPC-3 [5]: C (C represents the MIC in the presence of ≤4 g/mL of a β-lactamase inhibitor)

CC(=O)CCC(=O)N[C@H]1Cc2cc(F)c(F)c(C(=O)O)c2OB1O [Example 50, (R)-6,7-Difluoro-2-hydroxy-3-(4-oxo-pentanoylamino)-3,4-dihydro-2H-benzo[e][1,2]oxaborinine-8-carboxylic acid]
IC50 (KPC-2 β-lactamase): < 100 nM
MIC of exemplary compounds in presence of fixed β-lactams, E. cl. 144200 p99 AmpC [1]: C (C represents the MIC in the presence of ≤4 g/mL of a β-lactamase inhibitor)
MIC of exemplary compounds in presence of fixed β-lactams, E. coli ESBL4 CTX-M-15 [2]: C (C represents the MIC in the presence of ≤4 g/mL of a β-lactamase inhibitor)
IC50 (p99 AmpC β-lactamase): 100 to 1000 nM
IC50 (SHV-5 β-lactamase): < 100 nM
IC50 [3]: 100 to 1000 nM
IC50 (OXA-1 β-lactamase): < 100 nM
MIC of exemplary compounds in presence of fixed β-lactams, K.P. A-1797 KPC-2 VIM-4 [4]: B (B represents the MIC in the presence of between 8 and 32 g/mL of a β-lactamase inhibitor)
MIC of exemplary compounds in presence of fixed β-lactams, K.P. 156319 KPC-3 [5]: B (B represents the MIC in the presence of between 8 and 32 g/mL of a β-lactamase inhibitor)
